Experimental data from patent US20230085307A1, “PYRIDAZINONE COMPOUND AND HERBICIDE” (NISSAN CHEMICAL CORPORATION, priority 2019, published 2023).

How the values were obtained:
chickweed [1] = assay: Test Example 4: herbicidal effect by soil treatment (Table 19, symbol P); assay type: in vivo, common chickweed (Stellaria media); conditions: amount of applied herbicide 320 g/ha
How it was run: (§1)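 Emulsion of test compound, water-diluted to predetermined amount, sprayed on soil after sowing (seed depth ~1.5 cm, sterilized diluvial soil). Greenhouse, 25–30° C. Effect graded at three weeks post-spray.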

wild oat [2] = assay: Test Example 5: herbicidal effect by foliage application, plastic box (Table 20, symbol I); assay type: in vivo, wild oat (Avena fatua); conditions: foliage application, AAH 320 g/ha, evaluated three weeks after application
How it was run: (§2)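 Post-emergence foliar test in sterilized diluvial soil. Compound applied as water-diluted emulsion at a predetermined rate to 14-day-old plants; evaluation at three weeks.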

velvetleaf [3] = assay: Test Example 5: herbicidal effect by foliage application, plastic box (Table 20, symbol M); assay type: in vivo, velvetleaf (Abutilon theophrasti); conditions: foliage application, AAH 320 g/ha, evaluated three weeks after application
How it was run: as §2

barnyard grass [4] = assay: Test Example 4: herbicidal effect by soil treatment (Table 19, symbol H); assay type: in vivo, barnyard grass (Echinochloa crus-galli); conditions: amount of applied herbicide 320 g/ha
How it was run: as §1

redroot pigweed [5] = assay: Test Example 5: herbicidal effect by foliage application, plastic box (Table 20, symbol N); assay type: in vivo, redroot pigweed (Amaranthus retroflexus); conditions: foliage application, AAH 320 g/ha, evaluated three weeks after application
How it was run: as §2

barnyard grass [6] = assay: Test Example 3: herbicidal effect by foliage application, Wagner pot (Table 18, symbol H); assay type: in vivo, barnyard grass (Echinochloa crus-galli); conditions: amount of applied herbicide 320 g/ha
How it was run: (§3)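 Plants were sown in alluvial soil held under 0.1–0.5 cm standing water and grown 14 days in a greenhouse at 25–30 °C. An emulsifiable formulation, water-diluted to the set dose, was then sprayed onto the foliage, and effects were scored three weeks later using previously defined criteria.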

Italian ryegrass [7] = assay: Test Example 4: herbicidal effect by soil treatment (Table 19, symbol K); assay type: in vivo, Italian ryegrass (Lolium multiflorum); conditions: amount of applied herbicide 320 g/ha
How it was run: as §1

green foxtail [8] = assay: Test Example 5: herbicidal effect by foliage application, plastic box (Table 20, symbol G); assay type: in vivo, green foxtail (Setaria viridis); conditions: foliage application, AAH 320 g/ha, evaluated three weeks after application
How it was run: as §2

windgrass [9] = assay: Test Example 4: herbicidal effect by soil treatment (Table 19, symbol L); assay type: in vivo, windgrass (Apera spica-venti); conditions: amount of applied herbicide 320 g/ha
How it was run: as §1

southern crabgrass [10] = assay: Test Example 5: herbicidal effect by foliage application, plastic box (Table 20, symbol F); assay type: in vivo, southern crabgrass (Digitaria ciliaris); conditions: foliage application, AAH 320 g/ha, evaluated three weeks after application
How it was run: as §2

chickweed [11] = assay: Test Example 5: herbicidal effect by foliage application, plastic box (Table 20, symbol P); assay type: in vivo, common chickweed (Stellaria media); conditions: foliage application, AAH 320 g/ha, evaluated three weeks after application
How it was run: as §2

barnyard grass [12] = assay: Test Example 5: herbicidal effect by foliage application, plastic box (Table 20, symbol H); assay type: in vivo, barnyard grass (Echinochloa crus-galli); conditions: foliage application, AAH 320 g/ha, evaluated three weeks after application
How it was run: as §2

persian speedwell [13] = assay: Test Example 5: herbicidal effect by foliage application, plastic box (Table 20, symbol R); assay type: in vivo, Persian speedwell (Veronica persica); conditions: foliage application, AAH 320 g/ha, evaluated three weeks after application
How it was run: as §2

blackgrass [14] = assay: Test Example 4: herbicidal effect by soil treatment (Table 19, symbol J); assay type: in vivo, blackgrass (Alopecurus myosuroides); conditions: amount of applied herbicide 320 g/ha
How it was run: as §1

Italian ryegrass [15] = assay: Test Example 5: herbicidal effect by foliage application, plastic box (Table 20, symbol K); assay type: in vivo, Italian ryegrass (Lolium multiflorum); conditions: foliage application, AAH 320 g/ha, evaluated three weeks after application
How it was run: as §2

redroot pigweed [16] = assay: Test Example 4: herbicidal effect by soil treatment (Table 19, symbol N); assay type: in vivo, redroot pigweed (Amaranthus retroflexus); conditions: amount of applied herbicide 320 g/ha
How it was run: as §1

green foxtail [17] = assay: Test Example 4: herbicidal effect by soil treatment (Table 19, symbol G); assay type: in vivo, green foxtail (Setaria viridis); conditions: amount of applied herbicide 320 g/ha
How it was run: as §1

velvetleaf [18] = assay: Test Example 4: herbicidal effect by soil treatment (Table 19, symbol M); assay type: in vivo, velvetleaf (Abutilon theophrasti); conditions: amount of applied herbicide 320 g/ha
How it was run: as §1

blackgrass [19] = assay: Test Example 5: herbicidal effect by foliage application, plastic box (Table 20, symbol J); assay type: in vivo, blackgrass (Alopecurus myosuroides); conditions: foliage application, AAH 320 g/ha, evaluated three weeks after application
How it was run: as §2

lambsquarters [20] = assay: Test Example 4: herbicidal effect by soil treatment (Table 19, symbol O); assay type: in vivo, lambsquarters (Chenopodium album); conditions: amount of applied herbicide 320 g/ha
How it was run: as §1

windgrass [21] = assay: Test Example 5: herbicidal effect by foliage application, plastic box (Table 20, symbol L); assay type: in vivo, windgrass (Apera spica-venti); conditions: foliage application, AAH 320 g/ha, evaluated three weeks after application
How it was run: as §2

lambsquarters [22] = assay: Test Example 5: herbicidal effect by foliage application, plastic box (Table 20, symbol O); assay type: in vivo, lambsquarters (Chenopodium album); conditions: foliage application, AAH 320 g/ha, evaluated three weeks after application
How it was run: as §2

wild oat [23] = assay: Test Example 4: herbicidal effect by soil treatment (Table 19, symbol I); assay type: in vivo, wild oat (Avena fatua); conditions: amount of applied herbicide 320 g/ha
How it was run: as §1

Chinese sprangletop = assay: Test Example 3: herbicidal effect by foliage application, Wagner pot (Table 18, symbol D); assay type: in vivo, chinese sprangletop (Leptochloa chinensis); conditions: amount of applied herbicide 320 g/ha
How it was run: as §3

rice flat sedge = assay: Test Example 3: herbicidal effect by foliage application, Wagner pot (Table 18, symbol E); assay type: in vivo, rice flat sedge (Cyperus iria); conditions: amount of applied herbicide 320 g/ha
How it was run: as §3

persian speedwell [24] = assay: Test Example 4: herbicidal effect by soil treatment (Table 19, symbol R); assay type: in vivo, Persian speedwell (Veronica persica); conditions: amount of applied herbicide 320 g/ha
How it was run: as §1

southern crabgrass [25] = assay: Test Example 4: herbicidal effect by soil treatment (Table 19, symbol F); assay type: in vivo, southern crabgrass (Digitaria ciliaris); conditions: amount of applied herbicide 320 g/ha
How it was run: as §1

SMILES	herbicidal effect on P: chickweed (chickweed [1])	I: wild oat, herbicidal effect (criteria 0-5) (wild oat [2])	M: velvetleaf, herbicidal effect (criteria 0-5) (velvetleaf [3])	herbicidal effect on H: barnyard grass (barnyard grass [4])	N: redroot pigweed, herbicidal effect (criteria 0-5) (redroot pigweed [5])	herbicidal effect on H: barnyard grass (barnyard grass [6])	herbicidal effect on K: Italian ryegrass (Italian ryegrass [7])	G: green foxtail, herbicidal effect (criteria 0-5) (green foxtail [8])	herbicidal effect on L: windgrass (windgrass [9])	F: southern crabgrass, herbicidal effect (criteria 0-5) (southern crabgrass [10])	P: chickweed, herbicidal effect (criteria 0-5) (chickweed [11])	H: barnyard grass, herbicidal effect (criteria 0-5) (barnyard grass [12])	R: persian speedwell, herbicidal effect (criteria 0-5) (persian speedwell [13])	herbicidal effect on J: blackgrass (blackgrass [14])	K: Italian ryegrass, herbicidal effect (criteria 0-5) (Italian ryegrass [15])	herbicidal effect on N: redroot pigweed (redroot pigweed [16])	herbicidal effect on G: green foxtail (green foxtail [17])	herbicidal effect on M: velvetleaf (velvetleaf [18])	J: blackgrass, herbicidal effect (criteria 0-5) (blackgrass [19])	herbicidal effect on O: lambsquarters (lambsquarters [20])	further results
Cc1nn(C)c(=O)c(-c2c(-c3ccc(OC(F)F)cc3)sc3ccc(F)cc23)c1OCC#N [2-303]	3 (Herbicidal rate of 40% or more and less than 70%)	0 (Herbicidal rate of 5% or less (almost no effect))	5 (Herbicidal rate of 90% or more (almost completely withered))	0 (Herbicidal rate of 5% or less (almost no effect))	5 (Herbicidal rate of 90% or more (almost completely withered))	5 (Herbicidal rate of 90% or more (almost completely withered))	0 (Herbicidal rate of 5% or less (almost no effect))	5 (Herbicidal rate of 90% or more (almost completely withered))	0 (Herbicidal rate of 5% or less (almost no effect))	0 (Herbicidal rate of 5% or less (almost no effect))	5 (Herbicidal rate of 90% or more (almost completely withered))	4 (Herbicidal rate of 70% or more and less than 90%)	5 (Herbicidal rate of 90% or more (almost completely withered))	0 (Herbicidal rate of 5% or less (almost no effect))	3 (Herbicidal rate of 40% or more and less than 70%)	0 (Herbicidal rate of 5% or less (almost no effect))	0 (Herbicidal rate of 5% or less (almost no effect))	0 (Herbicidal rate of 5% or less (almost no effect))	0 (Herbicidal rate of 5% or less (almost no effect))	0 (Herbicidal rate of 5% or less (almost no effect))	L: windgrass, herbicidal effect (criteria 0-5) (windgrass [21]): 0 (Herbicidal rate of 5% or less (almost no effect)); O: lambsquarters, herbicidal effect (criteria 0-5) (lambsquarters [22]): 5 (Herbicidal rate of 90% or more (almost completely withered)); herbicidal effect on I: wild oat (wild oat [23]): 0 (Herbicidal rate of 5% or less (almost no effect)); herbicidal effect on D: Chinese sprangletop (Chinese sprangletop): 4 (Herbicidal rate of 70% or more and less than 90%); herbicidal effect on E: rice flat sedge (rice flat sedge): 3 (Herbicidal rate of 40% or more and less than 70%); herbicidal effect on R: persian speedwell (persian speedwell [24]): 4 (Herbicidal rate of 70% or more and less than 90%); herbicidal effect on F: southern crabgrass (southern crabgrass [25]): 0 (Herbicidal rate of 5% or less (almost no effect))
CCCC(=O)Oc1c(C)nn(C)c(=O)c1-c1c(-c2ccc(F)cc2F)sc2ccc(F)cc12 [2-343]	3 (Herbicidal rate of 40% or more and less than 70%)	3 (Herbicidal rate of 40% or more and less than 70%)	5 (Herbicidal rate of 90% or more (almost completely withered))	3 (Herbicidal rate of 40% or more and less than 70%)	5 (Herbicidal rate of 90% or more (almost completely withered))	5 (Herbicidal rate of 90% or more (almost completely withered))	5 (Herbicidal rate of 90% or more (almost completely withered))	5 (Herbicidal rate of 90% or more (almost completely withered))	3 (Herbicidal rate of 40% or more and less than 70%)	5 (Herbicidal rate of 90% or more (almost completely withered))	5 (Herbicidal rate of 90% or more (almost completely withered))	3 (Herbicidal rate of 40% or more and less than 70%)	5 (Herbicidal rate of 90% or more (almost completely withered))	2 (Herbicidal rate of 20% or more and less than 40%)	5 (Herbicidal rate of 90% or more (almost completely withered))	3 (Herbicidal rate of 40% or more and less than 70%)	4 (Herbicidal rate of 70% or more and less than 90%)	3 (Herbicidal rate of 40% or more and less than 70%)	4 (Herbicidal rate of 70% or more and less than 90%)	2 (Herbicidal rate of 20% or more and less than 40%)	L: windgrass, herbicidal effect (criteria 0-5) (windgrass [21]): 5 (Herbicidal rate of 90% or more (almost completely withered)); O: lambsquarters, herbicidal effect (criteria 0-5) (lambsquarters [22]): 4 (Herbicidal rate of 70% or more and less than 90%); herbicidal effect on I: wild oat (wild oat [23]): 2 (Herbicidal rate of 20% or more and less than 40%); herbicidal effect on D: Chinese sprangletop (Chinese sprangletop): 5 (Herbicidal rate of 90% or more (almost completely withered)); herbicidal effect on E: rice flat sedge (rice flat sedge): 4 (Herbicidal rate of 70% or more and less than 90%); herbicidal effect on R: persian speedwell (persian speedwell [24]): 5 (Herbicidal rate of 90% or more (almost completely withered)); herbicidal effect on F: southern crabgrass (southern crabgrass [25]): 3 (Herbicidal rate of 40% or more and less than 70%)
